In patent US20100068208A1, “Degranulation inhibitor” (priority 2005, published 2010):
Read-outs that look alike come from different tables or passages of the source.

Key:
[1] = test system: TGR12; parameters: species or system human; conditions: CHO-TGR12GFP, 200 pM [125I]-rCST14 (Y0), 4° C. 2 hours; read-out: IC50 (competitive binding, Hill plot analysis)
Description: [^125I]-Labeled rat cortistatin-14 (Tyr0) (hereinafter [^125I]-rCST14 (Y0)) used for the competitive binding assay was prepared as follows. After 3 nmol/6 μL of rCST14 (Y0) (Funakoshi Co.), 6 μL of 10 μg/mL lactoperoxidase (in 0.1M HEPES (pH 7, 4)), 6 μL of 0.001% H2O2 and 6 μL of 37 MBq NaI (6 μL of 15 mg/100 mL NaI was used in cold run) were mixed, the mixture was reacted at room temperature for 20 minutes. […] For fractionation, TSKgel ODS-80™ was used, 10% MeCN/0.1% TFA was used as eluant A and 60% MeCN/0.1% TFA was used as eluant B at a gradient of 0-25 (2 mins.), 25-27.5 (3 mins.) and 27.5-35 (60 mins.), respectively; and the flow rate was 1 mL/min.
CHO/dhfr^− cells (hereinafter CHO) were incubated in α-MEM (Invitrogen) supplemented with 10% fetal calf serum. […]
The binding assay using CHO-TGR12GFP was performed as follows. […] After washing 3 times with 500 μL of the assay buffer, the cells were lysed in 250 μL of 0.5N NaOH and the lysate was recovered for measurement of the radioactivity.

[2] = test system: human mast cell line LAD 2; experiment: Expression of TNF-α, CCL-2 or CCL-5 mRNA in LAD 2 (TaqMan PCR); type: cell-based; conditions: various TGR12 ligands experiment, 1 μM, two hours after stimulation
Description: Human mast cell line LAD 2 was cultured in StemPro-34 medium (Invitrogen) supplemented with 100 ng/mL of stem cell factor (Immuno-Biological Laboratories Co., Ltd.). […] A 750 μL aliquot was inoculated on a 24-well plate, which was then allowed to stand in a CO2 incubator at 37° C. for 30 minutes. […] The assay was performed for the respective reaction conditions in n=3. The plate was ice-chilled 0.5, 2, 8 and 24 hours after to stop the activation of LAD 2. After centrifugation at 300×g for 5 minutes, total RNA was extracted from the precipitated cells using RNeasy Mini Kit (Qiagen) according to the protocol attached. Further in the experiments where expression levels upon stimulation by various TGR12 ligands were analyzed, LAD 2 was centrifuged at 300×g for 5 minutes and the cells precipitated were counted and suspended in the medium at 1.33×10^6 cells/mL. A 750 μL aliquot was inoculated on a 24-well plate, which was allowed to stand in a CO2 incubator at 37° C. for 30 minutes. […] The assay was performed for the respective reaction conditions in n=3. Two hours after, the plate was ice-chilled to stop the activation of LAD 2. After centrifugation at 300×g for 5 minutes, total RNA was extracted from the precipitated cells using RNeasy Mini Kit (Qiagen) according to the protocol attached. The total RNA obtained as described above was concentrated using ethachinmate according to the protocol attached and dissolved in RNase-free H2O, Next, using the solution corresponding to […] of total RNA, reverse transcription was performed by the following procedure using SuperScript II reverse transcriptase (Invitrogen) to synthesize single stranded cDNA. To the total RNA solution, 0.1 μg of random primer (Invitrogen) and 1 μL of 10 mM dNTP (Invitrogen) were added and then RNase-free H2O was added to make the whole volume 12 μL. The mixture was then incubated at 70° C. for 10 minutes and ice-cooled for a minute. After 4 μL of 5× First-Strand Buffer (attached to SuperScript II reverse transcriptase), 2 μL of 0.1M DTT (attached to SuperScript II reverse transcriptase), 1 μL of RNaseOUT (Invitrogen) and 1 μL of SuperScript II reverse transcriptase were added, the mixture was incubated at 42° C. for 50 minutes, then at 70° C. for 15 minutes and ice-cooled for 5 minutes. The thus obtained cDNA was purified using ethachinmate in accordance with the protocol attached and dissolved in Tris-EDTA buffer (Fluka).
In TaqMan PCR below, hTNFalpha-tF (SEQ ID NO: 33) and hTNFalpha-tR (SEQ ID NO: 34) were used as primers for human TNF-α quantification, hTNFalpha-tP (SEQ ID NO: 35) as a probe and hTNFalpha-standard (SEQ ID NO: 36) as a standard. For human CCL-5 quantification, hCCL5-tF (SEQ ID NO: 37) and hCCL5-tR (SEQ ID NO: 38) were used as primers, hCCL5-tP (SEQ ID NO: 39) as a probe and hCCL5 standard (SEQ ID NO: 40) as a standard. For human CCL-2 quantification, hCCL2-tF (SEQ ID NO: 41) and hCCL2-tR (SEQ ID NO: 42) were used as primers, hCCL2-tP (SEQ ID NO: 43) as a probe and hCCL2 standard (SEQ ID NO: 44) as a standard.
TaqMan PCR was performed in n=2 for each sample in a liquid volume of 15 μl using 12.5 ng of total RNA as a template. The reaction solution was composed of 900 nM primer, 250 nM probe and ½ volume of TaqMan Universal PCR Master Mix (Applied Biosystems). The reaction and analysis were performed by ABI PRISM 7900HT Sequence Detection System (Applied Biosystems). After keeping warm at 50° C. for 2 minutes and then at 95° C. for 10 minutes, the reaction cycle was set in one cycle to include 95° C. for 15 seconds and 60° C. for 1 minute and repeating the cycle 40 times.

[3] = test system: human mast cell line LAD 2; experiment: TGR12 ligand-dependent degranulation of LAD 2 (β-hexosaminidase release); type: cell-based
Description: Human mast cell line LAD 2 was incubated in StemPro-34 medium (Invitrogen) supplemented with 100 ng/mL of stem cell factor (Immuno-Biological Laboratories Co., Ltd.). […] Subsequently, Tyrode's buffer containing 50 μL of TGR12 ligand (Peptide Institute, Inc.) in various concentrations was added and incubation was continued at 37° C. for further 20 minutes to induce degranulation. The degree of degranulation was determined by assaying the β-hexosaminidase activity in the degranulation assay supernatant as given below. The supernatant was dispensed into a 96-well plate and 0.1M citrate (pH 4.5)/1 mM 4-methyl umbelliferyl-2-acetamido-2-deoxy-beta-D-glucopyranoside (Wako Pure Chemical) in 5-fold of the supernatant was added thereto, followed by incubation at 37° C. for an hour. […] The activity was then assayed using Fusion-α (Perkin-Elmer). The β-hexosaminidase activity was also shown by the activity in the supernatant obtained by centrifugation after freezing and thawing LAD 2 four times, which was made total β-hexosaminidase activity in LAD 2, and the degree of degranulation was shown as the percentage of the β-hexosaminidase activity in the LAD 2 supernatant based on the total β-hexosaminidase activity.

[4] = LAD 2, read-out: EC50 in the degranulation on LAD 2

| Structure (SMILES) | IC50 [1] | expression level of CCL-2 in LAD 2 [2] | expression level of CCL-5 in LAD 2 [2] | expression level of TNF-α in LAD 2 [2] | stimulated degranulation (β-hexosaminidase in supernatant, % of total) ([3]; LAD 2, 10 nM) | stimulated degranulation (β-hexosaminidase in supernatant, % of total) ([3]; LAD 2, 30 nM) | stimulated degranulation (β-hexosaminidase in supernatant, % of total) ([3]; LAD 2, 100 nM) | stimulated degranulation (β-hexosaminidase in supernatant, % of total) ([3]; LAD 2, 300 nM) | stimulated degranulation (β-hexosaminidase in supernatant, % of total) ([3]; LAD 2, 1 μM) | stimulated degranulation (β-hexosaminidase in supernatant, % of total) ([3]; LAD 2, 3 μM) | EC50 [3, 4] | EC50 [3] | stimulated degranulation (β-hexosaminidase in supernatant, % of total) ([3]; LAD 2, 3 nM) |
| --- | --- | --- | --- | --- | --- | --- | --- | --- | --- | --- | --- | --- | --- |
| CC[C@H](C)[C@H](NC(=O)CNC(=O)[C@H](CC(=O)O)NC(=O)[C@H](CO)NC(=O)[C@@H](N)Cc1c[nH]cn1)C(=O)N[C@@H](Cc1ccccc1)C(=O)N[C@H](C(=O)N[C@@H](CC(=O)O)C(=O)N[C@@H](CO)C(=O)N[C@@H](Cc1ccc(O)cc1)C(=O)N[C@@H](CO)C(=O)N[C@@H](CCCNC(=N)N)C(=O)N[C@@H](Cc1ccc(O)cc1)C(=O)N[C@@H](CCCNC(=N)N)C(=O)N[C@@H](CCCCN)C(=O)N[C@@H](CCC(N)=O)C(=O)N[C@@H](CCSC)C(=O)N[C@@H](C)C(=O)N[C@H](C(=O)N[C@@H](CCCCN)C(=O)N[C@@H](CCCCN)C(=O)N[C@@H](Cc1ccc(O)cc1)C(=O)N[C@@H](CC(C)C)C(=O)N[C@@H](C)C(=O)N[C@@H](C)C(=O)N[C@H](C(=O)N[C@@H](CC(C)C)C(N)=O)C(C)C)C(C)C)[C@@H](C)O [PACAP-27] | 264 nM | 3809873 copies | 48242 copies | 219597 copies | 2.6% | 19.6% | 59.4% | 71.1% | 75.1% | 69.1% | ~51 nM |  |  |
| CC(C)C[C@H](NC(=O)[C@H](C)NC(=O)[C@H](Cc1c[nH]c2ccccc12)NC(=O)[C@H](CCCCN)NC(=O)[C@H](CC(N)=O)NC(=O)[C@H](Cc1c[nH]c2ccccc12)NC(=O)[C@H](CCCCN)NC(=O)[C@H](CCCCN)NC(=O)[C@H](CCCNC(=N)N)NC(=O)[C@@H](N)Cc1ccccc1)C(=O)N[C@@H](CO)C(=O)N[C@@H](CCCNC(=N)N)C(N)=O [PAMP-12, proadrenomedullin N-terminal 20 peptide (9-20)] |  | 1143248 copies | 34566 copies | 8918 copies | 30.7% | 52.1% | 65.2% | 67.7% | 69.3% |  |  | ~13 nM | 6.3% |
| CC[C@H](C)[C@H](NC(=O)[C@H](CO)NC(=O)[C@H](CC(N)=O)NC(=O)[C@H](CC(C)C)NC(=O)[C@H](Cc1ccc(O)cc1)NC(=O)[C@H](CCCCN)NC(=O)[C@H](CCCCN)NC(=O)[C@@H](NC(=O)[C@H](C)NC(=O)[C@H](CCSC)NC(=O)[C@H](CCC(N)=O)NC(=O)[C@H](CCCCN)NC(=O)[C@H](CCCNC(=N)N)NC(=O)[C@H](CC(C)C)NC(=O)[C@H](CCCNC(=N)N)NC(=O)[C@@H](NC(=O)[C@H](Cc1ccc(O)cc1)NC(=O)[C@H](CC(N)=O)NC(=O)[C@H](CC(=O)O)NC(=O)[C@@H](NC(=O)[C@H](Cc1ccccc1)NC(=O)[C@@H](NC(=O)[C@H](C)NC(=O)[C@H](CC(=O)O)NC(=O)[C@H](CO)NC(=O)[C@@H](N)Cc1c[nH]cn1)C(C)C)[C@@H](C)O)[C@@H](C)O)C(C)C)C(=O)N[C@@H](CC(C)C)C(=O)N[C@@H](CC(N)=O)C(N)=O [VIP, vasoactive intestinal polypeptide] | 2040 nM | 3630286 copies | 45015 copies | 176630 copies | 1.5% | 4.0% | 36.7% | 63.9% | 71.7% | 76.1% | ~105 nM |  |  |
| CSCC[C@H](NC(=O)[C@H](CCCNC(=N)N)NC(=O)[C@@H](N)CC(=O)O)C(=O)N1CCC[C@H]1C(=O)N[C@H]1CSSC[C@@H](C(=O)N[C@@H](CCCCN)C(=O)O)NC(=O)[C@H](CO)NC(=O)[C@H](CO)NC(=O)[C@H](Cc2ccccc2)NC(=O)[C@H]([C@@H](C)O)NC(=O)[C@H](CCCCN)NC(=O)[C@H](Cc2c[nH]c3ccccc23)NC(=O)[C@H](Cc2ccccc2)NC(=O)[C@H](Cc2ccccc2)NC(=O)[C@H](CC(N)=O)NC(=O)[C@H](CCCNC(=N)N)NC1=O [cortistatin-17] |  | 2944622 copies | 47322 copies | 163551 copies | 1.6% | 2.8% | 26.5% | 52.8% | 62.2% | 58.9% |  |  |  |
